Results on 15 compounds are retold here after patent US12428406B2 (PMV Pharmaceuticals, Inc., priority 2019, dated 2025).

The test deals with T1, p53 Y220C (Homo sapiens, UniProt P04637, Y220C).
T1 construct: The recombinant protein was a truncation mutant containing only amino acids 94-312 of p53; made in house; host or cells: E. coli
T1 sequence (P04637 94-312, change not shown): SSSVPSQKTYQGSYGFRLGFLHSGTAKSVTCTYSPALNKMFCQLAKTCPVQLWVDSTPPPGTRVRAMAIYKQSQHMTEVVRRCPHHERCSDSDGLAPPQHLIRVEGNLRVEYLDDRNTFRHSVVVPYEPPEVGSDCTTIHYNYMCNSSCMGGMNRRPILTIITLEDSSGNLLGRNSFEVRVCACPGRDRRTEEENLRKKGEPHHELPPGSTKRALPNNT
As to the kind of experiment: In vitro DNA binding activity assay (HTRF / TR-FRET): stabilization of p53 Y220C and increase of its DNA binding activity. It counts as biochemical. The note with it: recombinant His-tagged p53 Y220C DNA binding domain (aa 94-312), biotin-labeled consensus DNA, incubated at 27° C. or 29° C. for 60 min. The method in brief: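 Homogeneous time-resolved fluorescence with E. coli-derived p53 Y220C and biotinylated consensus DNA. Room-temperature incubations of 15 and 20 min precede reading. SC150 denotes the compound concentration required for 50% increased DNA binding.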
For the compound `CCNC(=O)c1ccc(NCC#Cc2cc3c(NC4CCN(CC(O)COC)CC4)cccc3n2CC(F)(F)F)c(OC)c1` (stereo not drawn) [Compound 655A, N-ethyl-4-{[3-(4-{[1-(2-hydroxy-3-methoxypropyl)piperidin-4-yl]amino}-1-(2,2,2-trifluoroethyl)-1H-indol-2-yl)prop-2-yn-1-yl]amino}-3-methoxybenzamide], the “SC150 (concentration of the compound required to increase the DNA binding activity by 50%)” value is listed as “+ (+ = 0 μM ≤ SC150 < 0.05 μM)”. The value for `CCC(=O)OCC(CN1CCC(Nc2cccc3c2cc(C#CCNc2ccc(C(=O)NC)cc2OC)n3CC(F)(F)F)CC1)OC(=O)CC` (stereo not drawn) [Compound 656A, 1-(4-{[2-(3-{[2-methoxy-4-(methylcarbamoyl)phenyl]amino}prop-1-yn-1-yl)-1-(2,2,2-trifluoroethyl)-1H-indol-4-yl]amino}piperidin-1-yl)-3-(propanoyloxy)propan-2-yl propanoate] was “+ (+ = 0 μM ≤ SC150 < 0.05 μM)”. As to `CCC(=O)OC(COC)CN1CCC(Nc2cccc3c2cc(C#CCNc2ccc(C(=O)NC)cc2OC)n3CC(F)(F)F)CC1` (stereo not drawn) [Compound 657A, 1-methoxy-3-(4-{[2-(3-{[2-methoxy-4-(methylcarbamoyl)phenyl]amino}prop-1-yn-1-yl)-1-(2,2,2-trifluoroethyl)-1lH-indol-4-yl]amino}piperidin-1-yl)propan-2-yl propanoate], the “SC150 (concentration of the compound required to increase the DNA binding activity by 50%)” value is on record as “+ (+ = 0 μM ≤ SC150 < 0.05 μM)”. The value for `CNC(=O)c1ccc(NCC#Cc2cc3c(NC4CCN(CC(O)CO)CC4)cccc3n2CC(F)(F)F)c(OC)c1` (stereo not drawn) [Compound 658A, 4-{[3-(4-{[1-(2,3-dihydroxypropyl)piperidin-4-yl]amino}-1-(2,2,2-trifluoroethyl)-1H-indol-2-yl)prop-2-yn-1-yl]amino}-3-methoxy-N-methylbenzamide] was “+ (+ = 0 μM ≤ SC150 < 0.05 μM)”. `CNC(=O)c1ccc(NCC#Cc2cc3c(NC4CCN(CC(O)COC)CC4)cccc3n2CC(F)(F)F)c(OCCC#N)c1` (stereo not drawn) [Compound 659A, 3-(2-cyanoethoxy)-4-{[3-(4-{[1-(2-hydroxy-3-methoxypropyl)piperidin-4-yl]amino}-1-(2,2,2-trifluoroethyl)-1H-indol-2-yl)prop-2-yn-1-yl]amino}-N-methylbenzamide]: the “SC150 (concentration of the compound required to increase the DNA binding activity by 50%)” value is “+ (+ = 0 μM ≤ SC150 < 0.05 μM)”. `CCOCC(O)CN1CCC(Nc2cccc3c2cc(C#CCNc2ccc(S(C)(=O)=O)cc2OC)n3CC(F)(F)F)CC1` (stereo not drawn) [Compound 660A, 1-ethoxy-3-{4-[(2-{3-[(4-methanesulfonyl-2-methoxyphenyl)amino]prop-1-yn-1-yl}-1-(2,2,2-trifluoroethyl)-1H-indol-4-yl)amino]piperidin-1-yl}propan-2-ol]: the “SC150 (concentration of the compound required to increase the DNA binding activity by 50%)” value is “+ (+ = 0 μM ≤ SC150 < 0.05 μM)”. `CC(O)CN1CCC(Nc2cccc3c2cc(C#CCNc2ccc(S(C)(=O)=O)cc2OCC#N)n3CC(F)(F)F)CC1` (stereo not drawn) [Compound 661A, 2-(2-{[3-(4-{[1-(2-hydroxypropyl)piperidin-4-yl]amino}-1-(2,2,2-trifluoroethyl)-1H-indol-2-yl)prop-2-yn-1-yl]amino}-5-methanesulfonylphenoxy)acetonitrile]: the “SC150 (concentration of the compound required to increase the DNA binding activity by 50%)” value is on record as “+ (+ = 0 μM ≤ SC150 < 0.05 μM)”. With `CCS(=O)(=O)c1ccc(NCC#Cc2cc3c(NC4CCN(CC(O)COC)CC4)cccc3n2CC(F)(F)F)c(OC)c1` (stereo not drawn) [Compound 662A, 1-(4-{[2-(3-{[4-(ethanesulfonyl)-2-methoxyphenyl]amino}prop-1-yn-1-yl)-1-(2,2,2-trifluoroethyl)-1H-indol-4-yl]amino}piperidin-1-yl)-3-methoxypropan-2-ol], the “SC150 (concentration of the compound required to increase the DNA binding activity by 50%)” value is given as “+ (+ = 0 μM ≤ SC150 < 0.05 μM)”. Consider `CNC(=O)c1ccc(NCC#Cc2cc3c(NC4CCN(CC(O)COC)CC4)cccc3n2CC(F)(F)F)c(OCF)c1` (stereo not drawn) [Compound 663A, 3-(fluoromethoxy)-4-{[3-(4-{[1-(2-hydroxy-3-methoxypropyl)piperidin-4-yl]amino}-1-(2,2,2-trifluoroethyl)-1H-indol-2-yl)prop-2-yn-1-yl]amino}-N-methylbenzamide], for which the “SC150 (concentration of the compound required to increase the DNA binding activity by 50%)” value is “+ (+ = 0 μM ≤ SC150 < 0.05 μM)”. Consider `COCC(O)CN1CCC(Nc2cccc3c2cc(C#CCNc2ccc(S(C)(=O)=O)cc2OCF)n3CC(F)(F)F)CC1` (stereo not drawn) [Compound 664A, 1-(4-{[2-(3-{[2-(fluoromethoxy)-4-methanesulfonylphenyl]amino}prop-1-yn-1-yl)-1-(2,2,2-trifluoroethyl)-1H-indol-4-yl]amino}piperidin-1-yl)-3-methoxypropan-2-ol], for which the “SC150 (concentration of the compound required to increase the DNA binding activity by 50%)” value was “+ (+ = 0 μM ≤ SC150 < 0.05 μM)”. `COCC(O)CN1CCC(Nc2cccc3c2cc(C#CCNc2ccc(C(C)(C)C#N)cc2OC)n3CC(F)(F)F)CC1` (stereo not drawn) [Compound 665A, 2-(4-{[3-(4-{[1-(2-hydroxy-3-methoxypropyl)piperidin-4-yl]amino}-1-(2,2,2-trifluoroethyl)-1H-indol-2-yl)prop-2-yn-1-yl]amino}-3-methoxyphenyl)-2-methylpropanenitrile]: the “SC150 (concentration of the compound required to increase the DNA binding activity by 50%)” value is on record as “+ (+ = 0 μM ≤ SC150 < 0.05 μM)”. `COC[C@@H](O)CN1CCC(Nc2cccc3c2cc(C#CCNc2ccc(S(C)(=O)=O)cc2OCF)n3CC(F)(F)F)CC1` [Compound 666A, (2S)-1-(4-{[2-(3-{[2-(fluoromethoxy)-4-methanesulfonylphenyl]amino}prop-1-yn-1-yl)-1-(2,2,2-trifluoroethyl)-1H-indol-4-yl]amino}piperidin-1-yl)-3-methoxypropan-2-ol]: the “SC150 (concentration of the compound required to increase the DNA binding activity by 50%)” value is on record as “+ (+ = 0 μM ≤ SC150 < 0.05 μM)”. Regarding `COC[C@H](O)CN1CCC(Nc2cccc3c2cc(C#CCNc2ccc(S(C)(=O)=O)cc2OCF)n3CC(F)(F)F)CC1` [Compound 667A, (2R)-1-(4-{[2-(3-{[2-(fluoromethoxy)-4-methanesulfonylphenyl]amino}prop-1-yn-1-yl)-1-(2,2,2-trifluoroethyl)-1H-indol-4-yl]amino}piperidin-1-yl)-3-methoxypropan-2-ol], the “SC150 (concentration of the compound required to increase the DNA binding activity by 50%)” value was “+ (+ = 0 μM ≤ SC150 < 0.05 μM)”.

In the case of `COCC(O)CN1CCC(Nc2cccc3c2cc(C#CCNc2ccc(S(C)(=O)=O)cc2OC(F)F)n3CC(F)(F)F)CC1` (stereo not drawn) [Compound 668A, 1-(4-{[2-(3-{[2-(difluoromethoxy)-4-methanesulfonylphenyl]amino}prop-1-yn-1-yl)-1-(2,2,2-trifluoroethyl)-1H-indol-4-yl]amino}piperidin-1-yl)-3-methoxypropan-2-ol], the “SC150 (concentration of the compound required to increase the DNA binding activity by 50%)” value is listed as “+ (+ = 0 μM ≤ SC150 < 0.05 μM)”. For the compound `COc1cc(S(C)(=O)=O)ccc1NCC#Cc1cc2c(NC3CCN(CC(O)COCC(O)CO)CC3)cccc2n1CC(F)(F)F` (stereo not drawn) [Compound 669A, 3-(2-hydroxy-3-{4-[(2-{3-[(4-methanesulfonyl-2-methoxyphenyl)amino]prop-1-yn-1-yl}-1-(2,2,2-trifluoroethyl)-1H-indol-4-yl)amino]piperidin-1-yl}propoxy)propane-1,2-diol], the “SC150 (concentration of the compound required to increase the DNA binding activity by 50%)” value was “+ (+ = 0 μM ≤ SC150 < 0.05 μM)”.
